We go through 92 molecules from a melting point compilation (Tetko et al.; mined from patent text by program, amines drawn as free bases though some values may be those of a salt).

The structures appear in SMILES notation.

Take `CCCCCCCN(CCCCCSc1nc(-c2ccc(OC)cc2)c(-c2ccc(OC)cc2)[nH]1)c1nc2ccccc2[nH]1`: the melting point lay within 78 to 80 °C. On to `Nc1ccc(C(c2ccccc2)c2ccccc2)nc1`, for which the melting point fell in the range of 130 to 134 °C. As to `Cn1c(COCCn2cnc3c(N)nc4ccccc4c32)cc2ccccc21`, the melting point fell in the range of 243 to 245 °C.

For the molecule `O=C(N[C@H](Cc1cccc(OC(F)(F)C(F)F)c1)[C@@H](O)c1cccc(F)n1)c1cccc2c1C=CCCC2` (racemic), the melting point was in the range of 151 to 152 °C. With `CCc1cn(C2CC(O)C(CCCO)O2)c(=O)[nH]c1=O` (configuration not stated) the figure was 113 to 115 °C; with `Cc1cc(C)cc(N(CCCC(N)=O)Cc2ccc3nc(NCCCN4CCOCC4)n(Cc4cccc5cccnc45)c3c2)c1`, 154 °C. Next, `O=C1CCOc2c1ccc1c2OC(CN2CC=C(c3c[nH]c4ccccc34)CC2)CO1` (configuration not stated): 210 °C. Next, `Cn1c(-c2ccccc2Cl)cc2ncccc2c1=O`: 152 to 153 °C. In turn, `CNC[C@@H](O)c1cc2ccccc2o1` had a melting point of 88 to 90 °C.

`N#CC1NC(CO)C(O)C(O)C1O` (configuration not stated) yielded a melting point of 143 °C. `COC(=O)C1Cc2c([nH]c3ccccc23)C(c2ccc(Cl)cc2Cl)N1` (configuration not stated) gave a melting point of 128 to 130 °C.

In the case of `CC(=O)Oc1c(C)c(CCC2CC(O)CC(=O)O2)c2c(c1C)CC(C)(C)O2` (configuration not stated), the melting point was 126 to 128 °C. The molecule `Cn1cnnc1S(=O)CC(=O)C12CC3CC(CC(C3)C1)C2` (configuration not stated) displayed a melting point of 124 to 127 °C.

For the molecule `Clc1nc(-c2nnc(Oc3ccccc3)o2)[nH]c1Cl`, the melting point was 109 °C. `C=C(c1ccc(Cl)cc1)c1ccc(NC(=O)c2cc(I)cc(I)c2O)cc1Cl` registered a melting point of 171 to 175 °C. Next, `CC#Cc1ccc(NC(=O)c2ccccc2NCc2ccncc2)cc1`: 147 to 155 °C. As for `CC1CCc2c(C#N)ccc3c(=O)c(C(=O)O)cn1c23` (configuration not stated), the melting point stood at 300 °C.

Consider `CN1CCC(c2cccc3ccc(O)cc23)CC1`, for which the melting point was 144 to 146 °C.

In the case of `O=C1CCc2ccc(Oc3c(F)cc(C(F)(F)F)cc3Cl)cc21`, the melting point worked out at 75 °C. With `Cc1cccc(C2CCN(CCCCCC(=O)N3Cc4ccccc4C3)CC2)c1C#N` the figure was 132 °C. Next, `Cc1c(N2CC(C)[C@@](N)(CF)C2)c(F)cc2c(=O)c(C(=O)O)cn([C@@H]3C[C@@H]3F)c12` (some centres not stated): 200 to 203 °C. With `CCCCC(CC)C(=O)Nc1ccc2ccn(Cc3ccc(C(=O)NS(=O)c4ccccc4)cc3OC)c2c1` (configuration not stated) the figure was 122 to 126 °C; with `O=C(Nc1ccc(C2CCC(O)C2)cc1)OCc1ccccc1` (configuration not stated), 99 to 101 °C; with `Cc1ccc(CCC(=O)NCCCCN2CCN(C(c3ccccc3)c3ccccc3)CC2)cn1`, 126 to 127 °C. For the molecule `O=C(c1ccc(Cl)cc1)N(c1ccccc1)c1ccc(OCc2ccccc2)cc1`, the melting point fell in the range of 132 to 136 °C. With `NC1=NC(c2ccc(OC(F)(F)F)cc2)(c2ccc(F)c(-c3cncnc3)c2)C(=O)N1C(F)F` (configuration not stated) the figure was 82 to 94 °C; with `CCOC(=O)/C=C(\c1ccc(C)cc1)c1ccc(OC)c(OC)c1`, 69 to 70 °C; with `CCCCCCn1c(C)c(C(=O)N(CCCC)CCCC)c2c(CN3CCCCC3)c(O)c(C(=O)CC)cc21`, 124 to 125 °C. `O=C(/C=C/c1ccccc1)OCCOC(=O)NC1(C(=O)O)CC1` showed a melting point of 169 to 172 °C. With `CCOC(=O)c1nc(/C=C/c2ccc([N+](=O)[O-])o2)no1` the figure was 138 to 139 °C; with `C=C(C)C(=O)c1ccc(OC)c(Cl)c1Cl`, 59 °C. On to `CS(=O)(=O)c1ccc(-c2sc(-c3ccccc3)nc2-c2ccc(F)cc2)cc1`, for which the melting point was 188 to 189 °C.

Molecule `OCC1Cn2c(nc3ccccc32)-c2ccccc2O1` (configuration not stated) returned a melting point of 142 to 144 °C.

As to `CC(=O)c1cc(F)c(N)c(C#N)c1F`, the melting point lay within 182 to 184 °C. As for `C=CC=C1SC(=S)N(CC(=O)O)C1=O`, the melting point lay within 144 to 146 °C. `O=C(Nc1ccc2ccc(-c3ccc(Cl)c(Cl)c3)nc2n1)c1cccc(Br)c1` yielded a melting point of 176 to 178 °C.

For `CN1C(=O)C(C)(C)N=C(c2ccccc2F)c2cc(NC(=O)C(C)(C)N)ccc21`, the melting point amounted to 250 °C. For the molecule `N#CCCCCCCNc1ccc(O)cc1`, the melting point fell in the range of 75 to 76 °C. With `Cn1cc(-c2ccccc2)c(=S)c(-c2cccc(C(F)(F)F)c2)c1` the figure was 210 °C; with `CC(C)(C)C(=O)Nc1ccc(SSc2ccc(NC(=O)C(C)(C)C)cc2C(N)=O)c(C(N)=O)c1`, 288 to 289 °C; with `NC(=O)c1cnc(N)c([N+](=O)[O-])c1`, 289 to 290 °C. With `O=C(O)COc1cc(Cl)ccc1C(=O)NCc1ccc(Cl)cc1` the figure was 184 to 186 °C; with `CNCC(O)(Cn1cncn1)c1ccc(Cl)cc1Cl` (configuration not stated), 98 to 101 °C; with `C#CCOc1cc(NC(=O)C2NCC3CC32)c(F)cc1Cl` (configuration not stated), 113 to 115 °C. With `COc1ccc(CNC=C2C(=O)Nc3cc(OC)c(OC)cc32)cc1OC` the figure was 198 to 200 °C; with `CN1Cc2c(Br)cc3c(c2C1)NC(=O)C3=O`, more than 300 °C; with `CCNC(=O)c1sc(C=O)cc1[Si](C)(C)C`, 62 to 65 °C. For `CN(Cc1ccccc1)c1nc(=O)c2cccnc2s1`, the melting point fell in the range of 112 to 113 °C.

`CC1Nc2cc(Br)ccc2NC1=O` (configuration not stated) showed a melting point of 133 to 135 °C. Next, `Nc1ccc(C(=O)OC2CCN(Cc3ccccc3)CC2)cn1`: 135 to 136 °C; `CC(C#Cc1ccc(-c2ccccc2)o1)N(O)C(N)=O` (configuration not stated): 163 to 164 °C; `CC(=O)N1CCN(c2cc3nc(C(C)(C)C)sc3cc2[N+](=O)[O-])CC1`: 166 to 168 °C. Next, `O=C(c1ccc(Cl)cc1)c1cc2ccccc2cn1`: 126 to 127 °C; `COCCCN1CC(=O)c2cc(Cl)sc2S1(=O)=O`: 48 to 52 °C. With `O=c1[nH]c2ccc(C(c3ccc(Cl)cc3)n3ccnc3-c3ccccc3)cc2c(Oc2cccc(Cl)c2)c1CO` (configuration not stated) the figure was 246 °C; with `CC1CC(N)=NN1c1ccccn1` (configuration not stated), 154 to 157 °C.

The molecule `COc1ccc(-c2ccc(C(=O)Nc3cc4ncc(CN5CCCC5)cc4cc3F)cc2)cc1` showed a melting point of 184 to 186 °C. Next, `CCCn1c(=O)[nH]c(=S)c2[nH]c(C=Cc3ccccc3)nc21`: more than 290 °C; `O=C(CN1CCNCCNCCNCC1)Nc1c(I)cc(I)c(C(=O)O)c1I`: 245 to 246 °C. With `Cc1n[nH]c2ccccc12` the figure was 110 to 113 °C; with `CCCC(C)(C(=O)N(C)C)n1cc(C)c(-c2ccccc2)n1` (configuration not stated), 90 to 92 °C; with `CN1C(=O)C2(COc3cc4c(cc32)OCCO4)c2c(NC(=O)C3CCC3)cccc21` (configuration not stated), 234 to 236 °C. With `Cc1cc(CNC(=O)c2sc(N3C[C@@H](C)N(Cc4cc(F)cc(F)c4)C3=O)nc2C)no1` the figure was 63 to 66 °C. Turning to `CC(C)c1ccc2c(c1)C(N1CCN(CCCO)CC1)Cc1ccc(F)cc1S2` (configuration not stated), the melting point fell in the range of 106 to 108 °C. Turning to `CC(C)N1CC(C(=O)c2ccc(Cc3ccc(F)cc3)s2)=C(O)C1=O`, the melting point lay within 138 to 139 °C. As to `CC(=O)SCC(C(=O)O)C(C)c1ccc(O)cc1` (configuration not stated), the melting point was found to be 48 °C. `CCOc1c(C)c(N2CCN(c3ccc(F)cc3)CC2)c(C)c2c1OC(C)C2` (configuration not stated) yielded a melting point of 136 to 138 °C.

Turning to `Cc1cc(C#N)c(Cl)nc1C`, the melting point was in the range of 83 to 87 °C.

`COc1cccc2c1CCc1c-2occ(C=O)c1=O` showed a melting point of 201 to 202 °C. Next, `Cc1oc2cc(C3CCNC(=O)C3)ccc2c1C` (configuration not stated): 195 to 197 °C; `CC(Oc1ccc(N(C)c2cnc3cc(Cl)ccc3n2)cc1)C(=O)O` (configuration not stated): 204 °C. `COc1cc(Nc2c(-c3ccc(S(C)(=O)=O)cc3)cnn(CC(F)(F)F)c2=O)cc(C(F)(F)F)c1` showed a melting point of 206 to 208 °C. Take `OC(c1cccc(F)c1)C1CCCCN1` (configuration not stated): the melting point was in the range of 146 to 148 °C. Next, `O=C1Nc2ccc(-c3cccc(Cl)c3)cc2C12OCCCO2`: 242 to 244 °C; `N#CC1C(=O)NC(=O)C12C(=O)N(Cc1ccc(Br)cc1F)c1ccccc12` (configuration not stated): 208 to 210 °C. In turn, `Cn1nncc1-c1cc(C=O)c2occc2c1` yielded a melting point of 180 to 182 °C. In the case of `COc1cc2c(cc1OC)CC(N1CC(O)CC1=O)CC2` (configuration not stated), the melting point was in the range of 178 to 179 °C. Next, `COc1cc(-c2nc3ccc(OCCCN(C)C)cc3n2Cc2ccccc2Br)cc(OC)c1OC`: 141 °C; `Fc1cc(F)cc(CN2CCN(c3cc(-c4ccccc4)c(C(F)(F)F)nn3)CC2)c1`: 139 °C; `CCc1nsc(N=C(Cl)N(C)C)c1C#N`: 95 to 97 °C. Take `NC(=O)c1ncn2c1[C@@H]1CCN1C(=O)c1c-2ccc(F)c1Cl`: the melting point was 296 to 298 °C.

Consider `CC1CCC(Oc2ccc(CC(=O)c3ccc4c(c3)CCC4)cc2)(C(=O)O)C1` (configuration not stated), for which the melting point fell in the range of 148 to 151 °C.

`COc1cc2ncc(C#N)c(Nc3cccc(C(C)=O)c3)c2cc1OC` had a melting point of 204 to 206 °C. Next, `Cc1cccc2nnc(-c3ccccc3)cc12`: 101 °C; `COc1cccc2c1CCC21NC(=O)c2ccccc21` (configuration not stated): 222 to 224 °C; `O=C(O)CCCOc1ccc(N2CCN(c3ccncc3)CC2)cc1[N+](=O)[O-]`: 219 to 220 °C.

As for `CCCc1nn(C)c2c(=O)[nH]c(Cc3ccccc3NS(=O)(=O)CCCN(C)C)nc12`, the melting point was 202 to 204 °C. With `CNc1cc(C(C)=O)ccc1OCCCCl` the figure was 115 to 117 °C; with `NC(=O)c1ccnn1-c1ccc(Oc2ccccc2)cc1`, 142 to 144 °C. With `CSC(N)=Nc1nncs1` the figure was 116 to 117 °C.

The molecule `COC(=O)CN(C(=O)c1ccc(Cl)cc1)c1ccccc1CCC#N` showed a melting point of 127 to 128 °C. With `CCNC=C(C(=O)C=Cc1ccc(N(C)C)cc1)C(=O)OC` the figure was 129 to 130 °C.

In general, melting point refers to the temperature, or range, at which the solid turns liquid.
